From ChEMBL document CHEMBL1201862, “PubChem BioAssay data set” (2004) come the findings set out here.

The source made the active and inactive calls. A value given as a limit tells only on which side of the number the result lay.

One test addresses Troponin, cardiac muscle (Homo sapiens, UniProt P19429+P45379+P63316). The test can be described thus: Fluorescence-based biochemical high throughput dose response assay for activators of the calcium sensitivity of cardiac Regulated Thin Filaments (RTF). [Related pubchem assays (depositor defined):AID493008, AID493018, AID504382, AID504383]. In kind it is protein-complex assay.

The nature of test [1]: compound autofluorescence in calcium buffer – biochemical, fluorescence, no RTF in test wells, artefact control for cardiac thin filament activator project, dose response (AID 504697).
The target in test [2] is T1, Long-chain-fatty-acid--AMP ligase FadD28 (Mycobacterium tuberculosis, UniProt P9WQ59).
T1 sequence (P9WQ59 whole entry): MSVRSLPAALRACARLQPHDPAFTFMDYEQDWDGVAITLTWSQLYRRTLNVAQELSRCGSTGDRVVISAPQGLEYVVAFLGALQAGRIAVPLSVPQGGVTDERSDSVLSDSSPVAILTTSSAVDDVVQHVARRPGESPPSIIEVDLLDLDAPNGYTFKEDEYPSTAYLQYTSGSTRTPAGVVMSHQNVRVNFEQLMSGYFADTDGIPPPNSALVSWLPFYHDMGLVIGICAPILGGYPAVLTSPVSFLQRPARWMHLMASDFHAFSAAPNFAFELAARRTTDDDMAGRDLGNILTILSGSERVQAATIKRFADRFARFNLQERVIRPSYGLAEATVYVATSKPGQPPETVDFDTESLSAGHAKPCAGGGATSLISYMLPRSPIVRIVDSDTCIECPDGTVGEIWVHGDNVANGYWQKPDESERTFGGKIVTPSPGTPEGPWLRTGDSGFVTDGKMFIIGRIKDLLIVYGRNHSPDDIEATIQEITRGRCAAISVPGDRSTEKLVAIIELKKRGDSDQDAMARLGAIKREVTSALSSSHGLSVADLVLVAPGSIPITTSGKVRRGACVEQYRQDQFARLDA
Nature of the test: Fluorescence polarization aasay to screen for inhibitors that compete for the binding of FadD28 to a bisubstrate Measured in Biochemical System Using Plate Reader - 2147-01_Inhibitor_Dose_CherryPick_Activity. In kind it is functional, Mycobacterium tuberculosis H37Rv.

Test [3] has as its target E3 ubiquitin-protein ligase XIAP (Homo sapiens, UniProt P98170). Nature of the test: Counter Screen using XIAP-Bir3 for Chemical Antagonists of Bir1/2 domains of IAP-family anti-apoptotic proteins. [Related pubchem assays (depositor defined):AID1018, AID1449, AID1514, AID1638, AID1749, AID1750, AID488957, AID488963].
Test [4] addresses T2, Sphingosine 1-phosphate receptor 4 (Homo sapiens, UniProt O95977).
T2 sequence (O95977 whole entry): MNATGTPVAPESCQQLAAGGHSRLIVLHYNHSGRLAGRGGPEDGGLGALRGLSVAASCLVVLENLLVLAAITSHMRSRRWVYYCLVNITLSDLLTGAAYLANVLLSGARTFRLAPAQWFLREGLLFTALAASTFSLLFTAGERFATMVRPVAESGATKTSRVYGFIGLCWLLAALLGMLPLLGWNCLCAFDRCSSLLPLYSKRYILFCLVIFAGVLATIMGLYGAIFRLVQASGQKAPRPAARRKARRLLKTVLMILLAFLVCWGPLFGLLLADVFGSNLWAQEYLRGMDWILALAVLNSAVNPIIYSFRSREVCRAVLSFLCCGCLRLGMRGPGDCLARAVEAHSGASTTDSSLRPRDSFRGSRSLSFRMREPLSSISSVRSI
The test can be described thus: Fluorescence dose response cell-based high throughput screening assay for agonists of the Sphingosine 1-Phosphate Receptor 4 (S1P4). [Related pubchem assays: 1509 (Primary screen.), 1523 (Confirmation screen in triplicates.)]. In kind it is functional.

In test [5] the target is Sphingosine 1-phosphate receptor 1 (Homo sapiens, UniProt P21453). The test can be described thus: Fluorescence-based counterscreen assay for S1P4 agonists: Cell-based dose response high throughput screening assay to identify agonists of the Sphingosine 1-Phosphate Receptor 1 (S1P1). [Related pubchem assays (depositor defined):AID1509, AID1523, AID1801, AID463107, AID463118, AID463119, AID463122, AID463123, AID463129, AID463225, AID504400, AID504460]. In kind it is functional.
Sphingosine 1-phosphate receptor 1, sequence (P21453 whole entry): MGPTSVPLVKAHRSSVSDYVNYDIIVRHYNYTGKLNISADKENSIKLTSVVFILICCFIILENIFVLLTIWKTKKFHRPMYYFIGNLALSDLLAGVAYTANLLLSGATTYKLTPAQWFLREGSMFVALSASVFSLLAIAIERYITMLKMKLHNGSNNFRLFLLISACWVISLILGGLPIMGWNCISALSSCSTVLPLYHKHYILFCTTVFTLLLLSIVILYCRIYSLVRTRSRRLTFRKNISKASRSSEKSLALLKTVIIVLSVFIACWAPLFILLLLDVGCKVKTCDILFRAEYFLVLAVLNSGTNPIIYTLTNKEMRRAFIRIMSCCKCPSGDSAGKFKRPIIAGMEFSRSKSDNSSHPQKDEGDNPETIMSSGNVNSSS

Test [6] can be described thus: Fluorescence-based cell-based high throughput dose response assay for inhibitors of the interaction of nucleotide-binding oligomerization domain containing 2 (NOD2) and the receptor-interacting serine-threonine kinase 2 (RIPK2). In kind it is functional. The settings on record: Homo sapiens.
A further test concerns the target Beta Lactamase (Pseudomonas aeruginosa, UniProt Q932Y6). Nature of the test: BLA reporter interference, concentration series – BLA reporter cells, FRET fluorescence, artefact control for NOD2-RIPK2 interaction inhibitor project, dose response (AID 651552). In kind it is functional, cell-based.
The target in test [7] is Nuclear receptor ROR-gamma (Homo sapiens, UniProt P51449). The test can be described thus: LXR, FXR and VP16 reporter activity, cell-based, luciferase reporter, ROR modulator project, late-stage follow-up, panel member RORG (AID 2117).
Nuclear receptor ROR-gamma, sequence (P51449 whole entry): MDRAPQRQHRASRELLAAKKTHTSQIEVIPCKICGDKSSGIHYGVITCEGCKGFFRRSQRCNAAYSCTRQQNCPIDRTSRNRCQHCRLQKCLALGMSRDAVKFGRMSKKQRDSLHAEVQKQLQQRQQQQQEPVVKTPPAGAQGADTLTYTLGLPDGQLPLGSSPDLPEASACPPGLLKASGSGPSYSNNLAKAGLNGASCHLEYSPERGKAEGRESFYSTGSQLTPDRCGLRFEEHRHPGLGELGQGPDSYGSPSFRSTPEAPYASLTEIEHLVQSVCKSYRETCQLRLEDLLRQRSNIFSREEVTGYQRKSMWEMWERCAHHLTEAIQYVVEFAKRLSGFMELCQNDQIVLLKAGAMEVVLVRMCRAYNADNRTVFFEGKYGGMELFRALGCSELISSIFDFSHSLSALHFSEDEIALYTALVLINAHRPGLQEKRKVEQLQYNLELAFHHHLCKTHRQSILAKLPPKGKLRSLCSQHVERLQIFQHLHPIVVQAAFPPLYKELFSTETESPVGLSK
Test [8] has as its target Nuclear receptor ROR-alpha (Homo sapiens, UniProt P35398). Nature of the test: LXR, FXR and VP16 reporter activity, cell-based, luciferase reporter, ROR modulator project, late-stage follow-up, panel member RORA (AID 2117).

Beta Lactamase, sequence (Q932Y6 whole entry): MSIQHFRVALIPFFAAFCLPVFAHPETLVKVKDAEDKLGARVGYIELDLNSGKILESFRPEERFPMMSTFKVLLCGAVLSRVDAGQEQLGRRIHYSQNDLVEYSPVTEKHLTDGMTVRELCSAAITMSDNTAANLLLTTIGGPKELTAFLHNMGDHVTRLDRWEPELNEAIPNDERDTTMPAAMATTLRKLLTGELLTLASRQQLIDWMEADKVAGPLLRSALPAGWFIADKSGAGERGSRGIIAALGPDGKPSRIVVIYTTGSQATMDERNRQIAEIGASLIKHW
Nuclear receptor ROR-alpha, sequence (P35398 whole entry): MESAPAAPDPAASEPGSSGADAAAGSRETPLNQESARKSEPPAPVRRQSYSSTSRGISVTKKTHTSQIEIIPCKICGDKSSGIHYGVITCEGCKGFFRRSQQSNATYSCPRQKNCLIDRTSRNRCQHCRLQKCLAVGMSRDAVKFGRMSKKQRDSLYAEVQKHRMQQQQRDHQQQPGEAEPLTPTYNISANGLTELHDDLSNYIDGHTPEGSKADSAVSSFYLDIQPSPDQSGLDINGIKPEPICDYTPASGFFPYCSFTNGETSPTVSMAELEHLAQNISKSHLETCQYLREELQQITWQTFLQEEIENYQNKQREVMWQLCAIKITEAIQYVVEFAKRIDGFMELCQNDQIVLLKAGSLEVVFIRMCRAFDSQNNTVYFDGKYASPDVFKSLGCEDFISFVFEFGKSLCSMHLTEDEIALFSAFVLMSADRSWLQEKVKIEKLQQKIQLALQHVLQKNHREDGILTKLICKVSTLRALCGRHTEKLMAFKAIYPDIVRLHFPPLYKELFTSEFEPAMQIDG
E3 ubiquitin-protein ligase XIAP, sequence (P98170 whole entry): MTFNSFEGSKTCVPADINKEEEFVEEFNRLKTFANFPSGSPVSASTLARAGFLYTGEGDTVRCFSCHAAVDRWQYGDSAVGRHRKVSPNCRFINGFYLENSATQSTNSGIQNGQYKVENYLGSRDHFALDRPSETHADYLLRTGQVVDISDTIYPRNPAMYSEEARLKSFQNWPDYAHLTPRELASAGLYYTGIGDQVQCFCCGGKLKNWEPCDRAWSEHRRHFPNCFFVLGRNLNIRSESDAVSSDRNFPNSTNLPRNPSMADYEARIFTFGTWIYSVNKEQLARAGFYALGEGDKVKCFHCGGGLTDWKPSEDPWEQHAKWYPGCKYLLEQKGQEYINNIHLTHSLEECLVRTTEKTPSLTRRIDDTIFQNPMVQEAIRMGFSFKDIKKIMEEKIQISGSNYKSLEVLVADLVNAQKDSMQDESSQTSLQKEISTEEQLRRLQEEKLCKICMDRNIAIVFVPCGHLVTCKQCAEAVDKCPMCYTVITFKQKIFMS

As to `CCN1C(=O)C(=CNc2ccc(N3CCOCC3)cc2)C(=O)N(CC)C1=S`, the concentration for a half-maximal effect (EC50) on Troponin, cardiac muscle is 5.15 µM (active); in test [1], > 7.94 µM (active). In test [2], the AC50 is > 100 µM (inactive). Besides, the IC50 in test [3] is > 20 µM (inactive).

Regarding `O=C(NCc1ccccc1)c1nc[nH]c1C(=O)N[C@@H](Cc1ccccc1)C(=O)OCc1ccccc1`, the half-maximal effective concentration (EC50) was 90.2 µM (not active) in [4] and > 49.8 µM (inactive) in [5].

In the case of `O=S(=O)(Nc1ccc(C(O)(C(F)(F)F)C(F)(F)F)cc1)c1ccc(Cl)c2nonc12`, the IC50 is 14.3 µM (inactive) in [6], 41.6 µM (inactive) on Beta Lactamase, 2.08 µM (active) in test [7] and 7.28 µM (active) in test [8].
